assay: Analgesic protection, writhing test; assay type: in vivo; design: unit not given here; conditions: Dose : 200 mg/kg

First: NC(=O)Oc1ccccc1C(=O)Oc1ccccc1 [compound 4]
Second: NC(=O)Oc1ccccc1C(=O)Oc1ccccc1Cl [compound 5]
The “Analgesic protection Writhing” value of the first is higher: 72.00 for the first, 70.00 for the second.

Going from NC(=O)Oc1ccccc1C(=O)Oc1ccc(Cl)cc1 [compound 6] to NC(=O)Oc1ccccc1C(=O)Oc1ccc(Cl)cc1Cl [compound 7], the “Analgesic protection Writhing” value falls from 83.00 to 76.00.

Going from Cc1cccc(OC(=O)c2ccccc2OC(N)=O)c1 [compound 8] to Cc1cc(OC(=O)c2ccccc2OC(N)=O)ccc1Cl [compound 9], the “Analgesic protection Writhing” value falls from 84.00 to 68.00.

Going from CCCCCCCCCCCCCCCc1cccc(OC(=O)c2ccccc2OC(N)=O)c1 [compound 10] to “O-Carbamoyl (3-pentadecylphenyl) salicylate [Sl. No. 10]”, the “Analgesic protection Writhing” value rises from 45.00 to 67.00.

Going from O-Carbamoyl ethylsalicylate [Sl. No. 2] to “O-Carbamoyl phenylsalicylate [Sl. No. 4]”, the “Analgesic protection Writhing” value rises from 69.78 to 95.00.

assay: Anti-inflammatory, edema test; assay type: in vivo; conditions: Dose : 200 mg/kg

First: NC(=O)Oc1ccccc1C(=O)Oc1ccccc1 [compound 4]
Second: NC(=O)Oc1ccccc1C(=O)Oc1ccccc1Cl [compound 5]
The “Anti-inflammatory %Inhibition Raw edema” value of the first is higher: 93.19% for the first, 35.00% for the second.

Going from NC(=O)Oc1ccccc1C(=O)Oc1ccc(Cl)cc1 [compound 6] to NC(=O)Oc1ccccc1C(=O)Oc1ccc(Cl)cc1Cl [compound 7], the “Anti-inflammatory %Inhibition Raw edema” value falls from 37.88% to 28.77%.

Compared with Cc1cccc(OC(=O)c2ccccc2OC(N)=O)c1 [compound 8], Cc1cc(OC(=O)c2ccccc2OC(N)=O)ccc1Cl [compound 9] is lower in “Anti-inflammatory %Inhibition Raw edema” value: 48.50% for the first, 28.90% for the second.

Compared with CCCCCCCCCCCCCCCc1cccc(OC(=O)c2ccccc2OC(N)=O)c1 [compound 10], “O-Carbamoyl (3-pentadecylphenyl) salicylate [Sl. No. 10]” is higher in “Anti-inflammatory %Inhibition Raw edema” value: 12.10% for the first, 34.85% for the second.

First: O-Carbamoyl ethylsalicylate [Sl. No. 2]
Second: O-Carbamoyl phenylsalicylate [Sl. No. 4]
The “Anti-inflammatory %Inhibition Raw edema” value of the first is higher: 76.23% for the first, 34.86% for the second.

assay: Anti-inflammatory, granuloma test; assay type: in vivo; conditions: Dose : 200 mg/kg

First: NC(=O)Oc1ccccc1C(=O)Oc1ccccc1 [compound 4]
Second: NC(=O)Oc1ccccc1C(=O)Oc1ccccc1Cl [compound 5]
The “Anti-inflammatory %Inhibition Granuloma” value of the first is higher: 57.65% for the first, 35.06% for the second.

Going from NC(=O)Oc1ccccc1C(=O)Oc1ccc(Cl)cc1 [compound 6] to NC(=O)Oc1ccccc1C(=O)Oc1ccc(Cl)cc1Cl [compound 7], the “Anti-inflammatory %Inhibition Granuloma” value falls from 41.45% to 34.40%.

Going from Cc1cccc(OC(=O)c2ccccc2OC(N)=O)c1 [compound 8] to Cc1cc(OC(=O)c2ccccc2OC(N)=O)ccc1Cl [compound 9], the “Anti-inflammatory %Inhibition Granuloma” value falls from 33.25% to 24.04%.

First: CCCCCCCCCCCCCCCc1cccc(OC(=O)c2ccccc2OC(N)=O)c1 [compound 10]
Second: O-Carbamoyl (3-pentadecylphenyl) salicylate [Sl. No. 10]
The “Anti-inflammatory %Inhibition Granuloma” value of the first is higher: 33.55% for the first, 19.79% for the second.

Compared with O-Carbamoyl ethylsalicylate [Sl. No. 2], “O-Carbamoyl phenylsalicylate [Sl. No. 4]” is lower in “Anti-inflammatory %Inhibition Granuloma” value: 46.32% for the first, 28.63% for the second.
